From patent publication US11767310B2, “Nicotinamide RIPK1 inhibitors” (AbbVie Inc., priority 2021, dated 2023)
Like-named read-outs stand apart in the source and are kept apart here.

Assays:
Assay in all cases: Kinase binding screen
Conditions in all cases: read-out: Percent Control at 100 nM Compound Concentration
STK35 = STK35 (Homo sapiens (Human), UniProt Q8TDR2)
EGFR(S752-I759del) = EGFR(S752-I759del) (Homo sapiens (Human), UniProt P00533, DEL752-759)
RIOK3 = RIOK3 (Homo sapiens (Human), UniProt O14730)
ERK5 = ERK5 (Homo sapiens (Human), UniProt Q13164)
[1] = biological target: TYK2(JH2domain-pseudokinase) (Homo sapiens (Human), UniProt P29597)
TYK2(JH2domain-pseudokinase), sequence (P29597 589-875): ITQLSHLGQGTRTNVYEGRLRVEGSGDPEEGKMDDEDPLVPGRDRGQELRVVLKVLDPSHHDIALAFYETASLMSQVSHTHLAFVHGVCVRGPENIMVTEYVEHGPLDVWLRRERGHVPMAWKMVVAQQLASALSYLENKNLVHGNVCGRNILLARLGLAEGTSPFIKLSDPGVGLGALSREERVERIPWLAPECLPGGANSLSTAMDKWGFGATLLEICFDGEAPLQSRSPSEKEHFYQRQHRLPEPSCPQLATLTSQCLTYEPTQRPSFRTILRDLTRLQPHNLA

CLK2 = CLK2 (Homo sapiens (Human), UniProt P49760)
CLK2, sequence (P49760 whole entry): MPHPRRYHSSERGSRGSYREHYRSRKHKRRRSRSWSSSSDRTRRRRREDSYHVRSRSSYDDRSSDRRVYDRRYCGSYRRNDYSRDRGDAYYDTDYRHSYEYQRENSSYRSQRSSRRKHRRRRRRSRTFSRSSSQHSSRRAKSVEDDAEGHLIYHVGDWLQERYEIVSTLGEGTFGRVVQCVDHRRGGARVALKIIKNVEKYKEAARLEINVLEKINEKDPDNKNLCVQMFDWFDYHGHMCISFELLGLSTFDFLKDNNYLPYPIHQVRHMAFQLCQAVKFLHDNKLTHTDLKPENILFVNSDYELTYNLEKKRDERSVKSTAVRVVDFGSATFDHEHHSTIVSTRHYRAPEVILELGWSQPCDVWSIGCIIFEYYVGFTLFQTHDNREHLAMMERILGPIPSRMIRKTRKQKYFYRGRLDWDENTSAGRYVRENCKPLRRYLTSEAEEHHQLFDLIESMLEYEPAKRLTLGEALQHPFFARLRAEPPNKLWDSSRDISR

[2] = biological target: RSK4(Kin.Dom.1-N-terminal) (Homo sapiens (Human), UniProt Q9UK32)
PIK4CB = PIK4CB (Homo sapiens (Human), UniProt Q9UBF8)
PRKD3 = PRKD3 (Homo sapiens (Human), UniProt O94806)
YANK2 = YANK2 (Homo sapiens (Human), UniProt Q9NY57)
[3] = biological target: ABL1(T315I)-nonphosphorylated (Homo sapiens (Human), UniProt P00519, T315I)
[4] = biological target: RPS6KA5(Kin.Dom.2-C-terminal) (Homo sapiens (Human), UniProt O75582)
HIPK3 = HIPK3 (Homo sapiens (Human), UniProt Q9H422)
HIPK3, sequence (Q9H422 whole entry): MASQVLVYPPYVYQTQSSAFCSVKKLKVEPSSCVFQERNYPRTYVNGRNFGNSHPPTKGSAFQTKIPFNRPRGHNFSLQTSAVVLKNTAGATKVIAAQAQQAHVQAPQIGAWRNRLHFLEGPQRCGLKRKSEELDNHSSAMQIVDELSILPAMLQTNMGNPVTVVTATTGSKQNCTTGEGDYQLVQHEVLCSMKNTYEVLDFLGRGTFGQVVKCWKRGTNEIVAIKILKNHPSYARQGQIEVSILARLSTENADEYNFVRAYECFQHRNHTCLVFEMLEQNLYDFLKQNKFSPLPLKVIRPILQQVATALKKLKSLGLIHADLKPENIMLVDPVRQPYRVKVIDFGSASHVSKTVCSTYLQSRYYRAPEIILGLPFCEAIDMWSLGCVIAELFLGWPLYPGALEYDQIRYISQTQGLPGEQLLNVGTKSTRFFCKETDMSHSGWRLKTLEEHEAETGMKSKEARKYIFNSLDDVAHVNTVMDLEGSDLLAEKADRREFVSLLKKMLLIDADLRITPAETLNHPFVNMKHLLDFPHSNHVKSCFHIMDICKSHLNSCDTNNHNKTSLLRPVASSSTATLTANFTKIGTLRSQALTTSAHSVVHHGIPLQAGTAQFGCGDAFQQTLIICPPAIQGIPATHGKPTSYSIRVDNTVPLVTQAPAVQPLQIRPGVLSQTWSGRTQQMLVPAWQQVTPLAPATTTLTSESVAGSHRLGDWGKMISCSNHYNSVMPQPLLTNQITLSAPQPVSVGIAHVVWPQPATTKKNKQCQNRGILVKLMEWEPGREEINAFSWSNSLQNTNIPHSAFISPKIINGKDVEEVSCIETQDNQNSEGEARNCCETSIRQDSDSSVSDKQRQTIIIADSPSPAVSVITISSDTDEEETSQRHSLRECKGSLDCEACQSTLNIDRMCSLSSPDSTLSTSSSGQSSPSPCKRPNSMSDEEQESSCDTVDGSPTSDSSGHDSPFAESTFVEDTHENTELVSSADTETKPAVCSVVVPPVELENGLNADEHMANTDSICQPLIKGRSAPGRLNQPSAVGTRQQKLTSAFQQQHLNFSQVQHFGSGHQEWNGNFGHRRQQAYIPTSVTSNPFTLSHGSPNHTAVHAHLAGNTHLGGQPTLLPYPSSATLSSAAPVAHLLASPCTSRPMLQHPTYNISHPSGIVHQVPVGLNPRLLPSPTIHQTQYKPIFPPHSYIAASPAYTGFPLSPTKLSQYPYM

CAMKK2 = CAMKK2 (Homo sapiens (Human), UniProt Q96RR4)
CAMK1 = CAMK1 (Homo sapiens (Human), UniProt Q14012)
CAMK1G = CAMK1G (Homo sapiens (Human), UniProt Q96NX5)
MKNK1 = MKNK1 (Homo sapiens (Human), UniProt Q9BUB5)
MKNK1, sequence (Q9BUB5 whole entry): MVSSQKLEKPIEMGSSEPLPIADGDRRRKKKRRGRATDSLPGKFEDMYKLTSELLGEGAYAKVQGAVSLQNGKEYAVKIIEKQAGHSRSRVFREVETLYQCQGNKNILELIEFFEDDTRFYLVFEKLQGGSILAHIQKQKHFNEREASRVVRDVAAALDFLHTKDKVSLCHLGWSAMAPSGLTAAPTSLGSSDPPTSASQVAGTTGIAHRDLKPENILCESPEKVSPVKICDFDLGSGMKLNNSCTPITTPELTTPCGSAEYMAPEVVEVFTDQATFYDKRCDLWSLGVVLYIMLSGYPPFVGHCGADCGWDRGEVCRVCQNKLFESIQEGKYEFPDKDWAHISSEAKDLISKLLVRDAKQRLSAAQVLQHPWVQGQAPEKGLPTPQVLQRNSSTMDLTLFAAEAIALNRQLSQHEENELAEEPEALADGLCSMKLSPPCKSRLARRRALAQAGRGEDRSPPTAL

TGFBR1 = TGFBR1 (Homo sapiens (Human), UniProt P36897)
TGFBR1, sequence (P36897 34-503): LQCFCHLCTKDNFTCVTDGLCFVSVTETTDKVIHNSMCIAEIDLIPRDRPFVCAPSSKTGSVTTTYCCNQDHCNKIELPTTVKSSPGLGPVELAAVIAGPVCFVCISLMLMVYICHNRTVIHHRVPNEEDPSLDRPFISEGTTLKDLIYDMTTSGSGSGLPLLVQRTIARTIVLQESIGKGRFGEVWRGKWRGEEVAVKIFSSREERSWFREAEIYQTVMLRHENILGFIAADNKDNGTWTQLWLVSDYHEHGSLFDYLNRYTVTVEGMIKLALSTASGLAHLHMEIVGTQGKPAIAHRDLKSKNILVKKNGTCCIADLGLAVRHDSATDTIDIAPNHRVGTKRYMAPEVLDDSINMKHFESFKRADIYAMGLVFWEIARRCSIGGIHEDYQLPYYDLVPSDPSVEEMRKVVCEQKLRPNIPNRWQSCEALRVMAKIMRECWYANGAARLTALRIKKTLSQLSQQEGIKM

[5] = biological target: ABL1(H396P)-nonphosphorylated (Homo sapiens (Human), UniProt P00519, H396P)
FAK = FAK (Homo sapiens (Human), UniProt Q05397)
STK16 = STK16 (Homo sapiens (Human), UniProt O75716)
MUSK = MUSK (Homo sapiens (Human), UniProt O15146)
MUSK, sequence (O15146 24-869): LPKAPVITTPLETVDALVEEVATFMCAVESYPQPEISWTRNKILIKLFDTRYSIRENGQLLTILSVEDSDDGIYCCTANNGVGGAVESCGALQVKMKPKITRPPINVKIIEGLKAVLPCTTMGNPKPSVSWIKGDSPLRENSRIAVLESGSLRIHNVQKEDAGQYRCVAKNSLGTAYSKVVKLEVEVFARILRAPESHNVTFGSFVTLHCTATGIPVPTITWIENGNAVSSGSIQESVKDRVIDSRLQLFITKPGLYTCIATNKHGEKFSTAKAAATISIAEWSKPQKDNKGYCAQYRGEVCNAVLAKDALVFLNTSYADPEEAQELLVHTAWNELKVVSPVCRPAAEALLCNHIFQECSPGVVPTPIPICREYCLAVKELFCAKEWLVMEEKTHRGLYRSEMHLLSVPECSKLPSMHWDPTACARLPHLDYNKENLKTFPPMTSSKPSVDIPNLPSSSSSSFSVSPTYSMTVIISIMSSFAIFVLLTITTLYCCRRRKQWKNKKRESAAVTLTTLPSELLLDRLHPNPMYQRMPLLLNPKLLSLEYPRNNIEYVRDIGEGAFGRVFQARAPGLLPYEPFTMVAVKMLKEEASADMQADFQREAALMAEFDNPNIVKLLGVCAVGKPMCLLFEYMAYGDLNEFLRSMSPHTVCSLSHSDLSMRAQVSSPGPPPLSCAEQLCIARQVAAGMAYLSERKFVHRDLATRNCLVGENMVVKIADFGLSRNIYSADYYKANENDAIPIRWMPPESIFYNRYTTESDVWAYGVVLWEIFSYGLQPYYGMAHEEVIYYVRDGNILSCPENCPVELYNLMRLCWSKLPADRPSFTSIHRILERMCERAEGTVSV

TAOK2 = TAOK2 (Homo sapiens (Human), UniProt Q9UL54)
TAOK2, sequence (Q9UL54 whole entry): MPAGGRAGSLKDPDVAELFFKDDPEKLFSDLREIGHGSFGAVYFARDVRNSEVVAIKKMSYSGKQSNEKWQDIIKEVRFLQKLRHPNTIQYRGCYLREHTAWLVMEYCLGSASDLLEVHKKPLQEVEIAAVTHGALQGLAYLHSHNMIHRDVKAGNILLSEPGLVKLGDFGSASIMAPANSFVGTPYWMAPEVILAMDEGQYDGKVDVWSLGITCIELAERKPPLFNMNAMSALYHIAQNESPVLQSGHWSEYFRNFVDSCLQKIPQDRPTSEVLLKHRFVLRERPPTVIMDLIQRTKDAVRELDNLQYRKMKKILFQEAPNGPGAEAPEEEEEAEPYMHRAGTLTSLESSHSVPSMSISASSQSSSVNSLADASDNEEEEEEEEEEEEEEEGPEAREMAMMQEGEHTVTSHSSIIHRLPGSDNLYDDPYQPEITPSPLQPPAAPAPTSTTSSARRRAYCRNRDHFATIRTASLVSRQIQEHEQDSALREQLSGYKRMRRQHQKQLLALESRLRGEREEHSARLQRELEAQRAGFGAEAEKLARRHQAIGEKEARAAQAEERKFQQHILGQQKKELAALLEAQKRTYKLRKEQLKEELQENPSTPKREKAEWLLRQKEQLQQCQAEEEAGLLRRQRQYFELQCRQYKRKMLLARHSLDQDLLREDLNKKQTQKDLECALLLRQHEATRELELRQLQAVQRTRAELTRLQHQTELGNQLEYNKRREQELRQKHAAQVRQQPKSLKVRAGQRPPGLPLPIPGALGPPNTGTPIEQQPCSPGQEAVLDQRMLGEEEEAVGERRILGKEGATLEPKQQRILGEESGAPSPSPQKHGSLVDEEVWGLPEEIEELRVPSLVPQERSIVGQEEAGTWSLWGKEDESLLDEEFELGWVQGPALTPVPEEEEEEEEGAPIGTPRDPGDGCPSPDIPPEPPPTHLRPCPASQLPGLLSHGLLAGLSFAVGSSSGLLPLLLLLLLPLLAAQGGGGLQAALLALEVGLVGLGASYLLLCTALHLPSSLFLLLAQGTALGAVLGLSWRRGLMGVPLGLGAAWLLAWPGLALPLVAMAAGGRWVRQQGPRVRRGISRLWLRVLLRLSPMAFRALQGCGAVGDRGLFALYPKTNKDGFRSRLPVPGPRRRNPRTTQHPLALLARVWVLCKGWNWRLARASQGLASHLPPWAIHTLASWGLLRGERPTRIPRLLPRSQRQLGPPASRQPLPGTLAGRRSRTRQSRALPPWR

ERBB2 = ERBB2 (Homo sapiens (Human), UniProt P04626)
YES = YES (Homo sapiens (Human), UniProt P07947)
TRKA = TRKA (Homo sapiens (Human), UniProt P04629)
TAK1 = TAK1 (Homo sapiens (Human), UniProt O43318)
PIK3CA(E542K) = PIK3CA(E542K) (Homo sapiens (Human), UniProt P42336, E542K)

SMILES: CN(C[C@H](Cc1ccccc1)OP(=O)(O)O)C(=O)c1cncc(C#Cc2cnn(C(F)F)c2)c1 [Example 19, (S)-1-(5-((1-(difluoromethyl)-1H-pyrazol-4-yl)ethynyl)-N-methylnicotinamido)-3-phenylpropan-2-yl dihydrogen phosphate]
- remaining activity at 0.1 µM (STK35): 100%
- remaining activity at 0.1 µM (EGFR(S752-I759del)): 100%
- remaining activity at 0.1 µM (RIOK3): 100%
- remaining activity at 0.1 µM (ERK5): 100%
- remaining activity at 0.1 µM [1]: 90%
- remaining activity at 0.1 µM (CLK2): 100%
- remaining activity at 0.1 µM [2]: 93%
- remaining activity at 0.1 µM (PIK4CB): 98%
- remaining activity at 0.1 µM (PRKD3): 100%
- remaining activity at 0.1 µM (YANK2): 95%
- remaining activity at 0.1 µM [3]: 97%
- remaining activity at 0.1 µM [4]: 90%
- remaining activity at 0.1 µM (HIPK3): 88%
- remaining activity at 0.1 µM (CAMKK2): 100%
- remaining activity at 0.1 µM (CAMK1): 62%
- remaining activity at 0.1 µM (CAMK1G): 100%
- remaining activity at 0.1 µM (MKNK1): 91%
- remaining activity at 0.1 µM (TGFBR1): 100%
- remaining activity at 0.1 µM [5]: 96%
- remaining activity at 0.1 µM (FAK): 100%
- remaining activity at 0.1 µM (STK16): 92%
- remaining activity at 0.1 µM (MUSK): 100%
- remaining activity at 0.1 µM (TAOK2): 77%
- remaining activity at 0.1 µM (ERBB2): 65%
- remaining activity at 0.1 µM (YES): 100%
- remaining activity at 0.1 µM (TRKA): 81%
- remaining activity at 0.1 µM (TAK1): 95%
- remaining activity at 0.1 µM (PIK3CA(E542K)): 81%

SMILES: CN(C[C@@H](O)Cc1ccccc1)C(=O)c1cncc(C#Cc2cnn(C(F)F)c2)c1 [Example 2, (S)-5-((1-(difluoromethyl)-1H-pyrazol-4-yl)ethynyl)-N-(2-hydroxy-3-phenylpropyl)-N-methylnicotinamide]
- remaining activity at 0.1 µM (STK35; STK35): 99%
- remaining activity at 0.1 µM (EGFR(S752-I759del); EGFR(S752-I759del)): 100%
- remaining activity at 0.1 µM (RIOK3; RIOK3): 100%
- remaining activity at 0.1 µM (ERK5; ERK5): 100%
- remaining activity at 0.1 µM ([1]; TYK2(JH2domain-pseudokinase)): 100%
- remaining activity at 0.1 µM (CLK2; CLK2): 95%
- remaining activity at 0.1 µM ([2]; RSK4(Kin.Dom.1-N-terminal)): 100%
- remaining activity at 0.1 µM (PIK4CB; PIK4CB): 100%
- remaining activity at 0.1 µM (PRKD3; PRKD3): 100%
- remaining activity at 0.1 µM (YANK2; YANK2): 100%
- remaining activity at 0.1 µM ([3]; ABL1(T315I)-nonphosphorylated): 100%
- remaining activity at 0.1 µM ([4]; RPS6KA5(Kin.Dom.2-C-terminal)): 95%
- remaining activity at 0.1 µM (HIPK3; HIPK3): 100%
- remaining activity at 0.1 µM (CAMKK2; CAMKK2): 99%
- remaining activity at 0.1 µM (CAMK1; CAMK1): 100%
- remaining activity at 0.1 µM (CAMK1G; CAMK1G): 93%
- remaining activity at 0.1 µM (MKNK1; MKNK1): 96%
- remaining activity at 0.1 µM (TGFBR1; TGFBR1): 100%
- remaining activity at 0.1 µM ([5]; ABL1(H396P)-nonphosphorylated): 88%
- remaining activity at 0.1 µM (FAK; FAK): 100%
- remaining activity at 0.1 µM (STK16; STK16): 98%
- remaining activity at 0.1 µM (MUSK; MUSK): 100%
- remaining activity at 0.1 µM (TAOK2; TAOK2): 84%
- remaining activity at 0.1 µM (ERBB2; ERBB2): 70%
- remaining activity at 0.1 µM (YES; YES): 100%
- remaining activity at 0.1 µM (TRKA; TRKA): 100%
- remaining activity at 0.1 µM (TAK1; TAK1): 97%
- remaining activity at 0.1 µM (PIK3CA(E542K); PIK3CA(E542K)): 89%
